# Measured values from the supplement of paper PMC11451515.
# Tested on: NOMO1
# Experiment: cell viability relative to DMSO control; higher = less cytotoxic
# Details: 48 h
# Outline: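 Viability, reported as a per-plate percentage of DMSO wells with cell-free wells as background, came from CellTiter-Glo One luminescence. Reading took place after 48 h at 37°C. Before that, NOMO1 or SEM (500 cells/well) or P12-Ichikawa (1000 cells/well) leukemia cells, adapted for at least four passages in each medium, were seeded in 1536-well plates (5 μl) and pin-dosed with library compounds in DMSO, 47 μM to 0.79 nM over 11 threefold points.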
# [1] = HPLM + 10% dialyzed FBS, 0.000781 µM
# [2] = HPLM + 10% dialyzed FBS, 0.00234 µM
# [3] = HPLM + 10% dialyzed FBS, 0.00702 µM
# [4] = HPLM + 10% dialyzed FBS, 0.0211 µM
# [5] = HPLM + 10% dialyzed FBS, 0.0632 µM
# [6] = HPLM + 10% dialyzed FBS, 0.19 µM
# [7] = HPLM + 10% dialyzed FBS, 0.569 µM
# [8] = HPLM + 10% dialyzed FBS, 1.71 µM
# [9] = HPLM + 10% dialyzed FBS, 5.12 µM
# [10] = HPLM + 10% dialyzed FBS, 15.4 µM
# [11] = HPLM + 10% dialyzed FBS, 46.1 µM
# [12] = RPMI 5 mM glucose + 10% FBS, 0.000781 µM
# [13] = RPMI 5 mM glucose + 10% FBS, 0.00234 µM
# [14] = RPMI 5 mM glucose + 10% FBS, 0.00702 µM
# [15] = RPMI 5 mM glucose + 10% FBS, 0.0211 µM
# [16] = RPMI 5 mM glucose + 10% FBS, 0.0632 µM
# [17] = RPMI 5 mM glucose + 10% FBS, 0.19 µM
# [18] = RPMI 5 mM glucose + 10% FBS, 0.569 µM
# [19] = RPMI 5 mM glucose + 10% FBS, 1.71 µM
# [20] = RPMI 5 mM glucose + 10% FBS, 5.12 µM
# [21] = RPMI 5 mM glucose + 10% FBS, 15.4 µM
# [22] = RPMI 5 mM glucose + 10% FBS, 46.1 µM
# [23] = RPMI 5 mM glucose + 10% dialyzed FBS, 0.000781 µM
# [24] = RPMI 5 mM glucose + 10% dialyzed FBS, 0.00234 µM
# [25] = RPMI 5 mM glucose + 10% dialyzed FBS, 0.00702 µM
# [26] = RPMI 5 mM glucose + 10% dialyzed FBS, 0.0211 µM
# [27] = RPMI 5 mM glucose + 10% dialyzed FBS, 0.0632 µM
# [28] = RPMI 5 mM glucose + 10% dialyzed FBS, 0.19 µM
# [29] = RPMI 5 mM glucose + 10% dialyzed FBS, 0.569 µM
# [30] = RPMI 5 mM glucose + 10% dialyzed FBS, 1.71 µM
# [31] = RPMI 5 mM glucose + 10% dialyzed FBS, 5.12 µM
# [32] = RPMI 5 mM glucose + 10% dialyzed FBS, 15.4 µM
# [33] = RPMI 5 mM glucose + 10% dialyzed FBS, 46.1 µM
SMILES,cell viability [1] [%],cell viability [2] [%],cell viability [3] [%],cell viability [4] [%],cell viability [5] [%],cell viability [6] [%],cell viability [7] [%],cell viability [8] [%],cell viability [9] [%],cell viability [10] [%],cell viability [11] [%],cell viability [12] [%],cell viability [13] [%],cell viability [14] [%],cell viability [15] [%],cell viability [16] [%],cell viability [17] [%],cell viability [18] [%],cell viability [19] [%],cell viability [20] [%],cell viability [21] [%],cell viability [22] [%],cell viability [23] [%],cell viability [24] [%],cell viability [25] [%],cell viability [26] [%],cell viability [27] [%],cell viability [28] [%],cell viability [29] [%],cell viability [30] [%],cell viability [31] [%],cell viability [32] [%],cell viability [33] [%]
Cc1ccc(NC(=O)c2cccc(N(C)C)c2)cc1NC(=O)c1ccc(O)cc1,127,119,115,121,151,136,146,122,120,136,105,114,110,107,108,113,109,121,118,118,121,106,110,114,115,121,116,110,116,126,138,108,107
CN(C)CC[C@H](CSc1ccccc1)Nc1ccc([S+](=O)([O-])NC(=O)c2ccc(N3CCN(Cc4ccccc4-c4ccc(Cl)cc4)CC3)cc2)cc1[N+](=O)[O-],140,119,125,108,127,92.5,96.7,102,52.7,50.2,55,108,118,109,107,99.5,98.8,89.5,80.7,50.8,49.6,60.6,115,123,102,114,98.3,85.3,62.7,46.1,33.9,30.6,42.5
COc1cc(Nc2ncc(F)c(Nc3ccc4c(n3)N(COP(=O)(O)O)C(=O)C(C)(C)O4)n2)cc(OC)c1OC,93.5,94.8,101,97.2,122,106,87.6,99.5,116,93.5,91.1,80.8,90.2,94.1,100,103,98.6,95.6,94.4,94.1,94.2,92.6,101,89,90.8,80.2,89.6,102,88.5,86.6,94.6,89.4,99.1
